Data: US20250073226A1, “USE OF OPIOID FOR TREATMENT OF AUTISM SPECTRUM DISORDERS” (priority 2021, published 2025)
Several values for one entry are separate records, joined by “and”; a condition that tells them apart may be missing. Equal entries are not always repeated. Marks after values point to notes of the source that are not given here.

Experiments:
Fmr1 knockout mice = assay: 3 chamber test in Fmr1 knockout mice; format: in vivo; settings: single subcutaneous administration, low dose of less than 1/10 of 1 mg/kg
Source text: It is known that patients with human fragile X syndrome (FXS), which is caused by abnormalities of the X chromosome, present with social impairment symptoms, such as those often seen in ASD (Non-patent Documents 7 to 9). The Fmr1 knockout mouse (Cell, 1994, 15; 78 (1): 23-33) is a model mouse that mimics human fragile X syndrome (FXS), and is also widely used as a model of ASD. Buprenorphine hydrochloride, a MOR partial agonist used as an analgesic, and physiological saline of a solvent were administered once, and the action on social dysfunction of Fmr1 knockout mice was examined. The dose was calculated as a free form for buprenorphine. As a social function evaluation, a 3 chamber test (Nature Medicine, 2017, 23; p674-677) was used. In the 3chamber test, two types of mice (Unfamiliar and Familiar) are placed in cups at both left and right ends of three compartments, and a ratio of time to search for a mouse with high novelty to a mouse with low novelty is calculated and quantified as social function (preference to a mouse with high novelty).

[1] = Estimation of buprenorphine maximum plasma concentration in humans by proportional calculation; settings: human, other: transdermal, 10 ug/kg
Experimental: As described above, preferred maximum plasma concentrations in ASD applications in mice are in the range of 26.6 pg/mL (at the time of administration of 0.3 pg/kg) to 2360 μg/mL (at the time of administration of 30p/kg) (preferably more than about 26.6 pg/mL and less than about 2360 μg/mL).

mice = settings: Non-patent Document 28, cited from earlier work
medial prefrontal cortex = assay: Brain activation: c-Fos positive cells in medial prefrontal cortex; format: in vivo, mice; settings: VPA model, 1 hour after administration
Experimental: (§1) Saline or buprenorphine at 0.0003, 0.003, or 0.03 mg/kg was administered to the VPA model, and 1 hour after that, the brain was extracted and immunostained with an anti-c-Fos antibody, and the number of c-Fos positive cells in nucleus accumens (NAc) and medial prefrontal cortex, which are brain regions known to promote social behavior, and dorsomedial periaqueductal gray (dmPAG), which is a brain region known to reduce social behavior and to be involved in the expression of analgesic effects, was quantified as the number of activated nerve cells.

nucleus accumbens (NAc) = assay: Brain activation: c-Fos positive cells in nucleus accumbens; format: in vivo, mice; settings: VPA model, 1 hour after administration
Experimental: as §1

[2] = Pharmacokinetic: drug concentrations in plasma by LC-MS after subcutaneous administration; settings: for concentration at 0.5 h: Plasma concentration 0.5 hr; for concentration at 1 h: Plasma concentration 1 hr; for concentration at 3 h: Plasma concentration 3 hr; for concentration at 12 h: Plasma concentration 12 hr; for concentration at 24 h: Plasma concentration 24 hr
VPA model = assay: Confirmation of continuous effect: social behavior in VPA model 3 or 12 hours after administration; format: in vivo, mice; settings: 0.003 mg/kg s.c.
Experimental: Saline or buprenorphine was subcutaneously administered to the VPA model in the same manner as in Example 1, and the amount of social behavior for 20 minutes from 3 hour after administration or for 20 minutes from 12 hours after administration was quantified. The improvement effect in social impairment by administration of 0.003 mg/kg of buprenorphine was observed even 3 hours and 12 hours after administration.

[3] = system: valproic acid model mice (VPA model); assay: Social interaction test in valproic acid model mice; format: in vivo, ICR mice; settings: single s.c. dose
Source text: Since ASD-like symptoms such as social impairment and cognitive dysfunction are observed, it is one of the most widely used the ASD model mice.
As the sociality evaluation, a method called a social interaction test was used. In the Social Interaction Test, two mice are placed in one cage, and how many seconds a target mouse (Test mouse) performs sniffing, which is social behavior, on another mouse (Intruder mouse) is quantified.

[4] = system: dorsomedial periaqueductal gray (dmPAG); assay: Brain activation: c-Fos positive cells in dorsomedial periaqueductal gray; format: in vivo, mice; settings: VPA model, 1 hour after administration
Experimental: as §1

[5] = ICR mice, buprenorphine 0.1 μg/kg s.c., individual samples
[6] = ICR mice, buprenorphine 0.3 μg/kg s.c., individual samples
[7] = ICR mice, buprenorphine 3 μg/kg s.c., individual samples
[8] = ICR mice, buprenorphine 10 μg/kg s.c., individual samples
[9] = ICR mice, buprenorphine 30 μg/kg s.c., individual samples
[10] = ICR, mouse, plasma, sc, 0.1 μg/kg, ICR mice, buprenorphine 0.1 μg/kg s.c., Mean
[11] = ICR, mouse, plasma, sc, 0.1 μg/kg, ICR mice, buprenorphine 0.1 μg/kg s.c., individual samples
[12] = ICR, mouse, plasma, sc, 0.3 μg/kg, ICR mice, buprenorphine 0.3 μg/kg s.c., Mean
[13] = ICR, mouse, plasma, sc, 0.3 μg/kg, ICR mice, buprenorphine 0.3 μg/kg s.c., individual samples
[14] = ICR, mouse, plasma, sc, 1 μg/kg, ICR mice, buprenorphine 1 μg/kg s.c., Measured value
[15] = ICR, mouse, plasma, sc, 3 μg/kg, ICR mice, buprenorphine 3 μg/kg s.c., Mean
[16] = ICR, mouse, plasma, sc, 3 μg/kg, ICR mice, buprenorphine 3 μg/kg s.c., individual samples
[17] = ICR, mouse, plasma, sc, 10 μg/kg, ICR mice, buprenorphine 10 μg/kg s.c., Mean
[18] = ICR, mouse, plasma, sc, 10 μg/kg, ICR mice, buprenorphine 10 μg/kg s.c., individual samples
[19] = ICR, mouse, plasma, sc, 30 μg/kg, ICR mice, buprenorphine 30 μg/kg s.c., Mean
[20] = ICR, mouse, plasma, sc, 30 μg/kg, ICR mice, buprenorphine 30 μg/kg s.c., individual samples

CO[C@]12CC[C@@]3(C[C@@H]1[C@](C)(O)C(C)(C)C)[C@H]1Cc4ccc(O)c5c4[C@@]3(CCN1CC1CC1)[C@H]2O5 [buprenorphine, 21-cyclopropyl-7-a-[(S)-1-hydroxy-1,2,2-trimethylpropyl]-6,14-endo-ethano-6,7,8,14 tetrahydrooripavine]
improvement effect in social impairment (3 chamber test) (Fmr1 knockout mice): significant improvement effect in social impairment
Cmax [1]: 0.084 to 0.176 ng/mL
dose at which the analgesic effect was maximum (mice): 1 mg/kg
minimum dose at which the analgesic effect is observed (mice; subcutaneous administration): 0.01 mg/kg
number of activated nerve cells (c-Fos positive cells) (medial prefrontal cortex; 0.003 mg/kg): significantly increased
number of activated nerve cells (c-Fos positive cells) (medial prefrontal cortex; 0.03 mg/kg): significantly increased
number of activated nerve cells (c-Fos positive cells) (nucleus accumbens (NAc); 0.003 mg/kg): significantly increased
number of activated nerve cells (c-Fos positive cells) (nucleus accumbens (NAc); 0.03 mg/kg): significantly increased
Plasma concentration 0.5 hr [2, 5]: 6.85 pg/mL and 6.52 pg/mL
Plasma concentration 1 hr [2, 5]: 4.66 pg/mL and 5.36 pg/mL
Plasma concentration 3 hr [2, 5]: BLQ (BLQ: LLOQ (lower limit of quantitation: 2 pg/mL) or less)
Plasma concentration 12 hr [2, 5]: BLQ (BLQ: LLOQ (lower limit of quantitation: 2 pg/mL) or less)
Plasma concentration 24 hr [2, 5]: BLQ (BLQ: LLOQ (lower limit of quantitation: 2 pg/mL) or less)
Plasma concentration 0.5 hr [2, 6]: 26 pg/mL and 30.9 pg/mL
Plasma concentration 1 hr [2, 6]: 13.7 pg/mL and 16.5 pg/mL
Plasma concentration 3 hr [2, 6]: 5.08 pg/mL and 4.87 pg/mL
Plasma concentration 12 hr [2, 6]: BLQ (BLQ: LLOQ (lower limit of quantitation: 2 pg/mL) or less)
Plasma concentration 24 hr [2, 6]: BLQ (BLQ: LLOQ (lower limit of quantitation: 2 pg/mL) or less)
Cmax ([2]; ICR mice, buprenorphine 1 μg/kg s.c.): 0.067 ng/mL
Plasma concentration 0.5 hr [2, 7]: 260 pg/mL and 271 pg/mL
Plasma concentration 1 hr [2, 7]: 119 pg/mL and 127 pg/mL
Plasma concentration 3 hr [2, 7]: 47.6 pg/mL and 83.3 pg/mL
Plasma concentration 12 hr [2, 7]: 0.00358 ng/mL and 0.00346 ng/mL
Plasma concentration 24 hr [2, 7]: BLQ (BLQ: LLOQ (lower limit of quantitation: 2 pg/mL) or less)
Cmax ([2]; ICR mice, buprenorphine 10 μg/kg s.c.): 0.67 ng/mL
Plasma concentration 0.5 hr [2, 8]: 711* pg/mL and 666* pg/mL
Plasma concentration 1 hr [2, 8]: 471* pg/mL and 367* pg/mL
Plasma concentration 3 hr [2, 8]: 145 pg/mL and 135 pg/mL
Plasma concentration 12 hr [2, 8]: 0.0171 ng/mL and 0.0271 ng/mL and 0.00669 ng/mL
Plasma concentration 24 hr [2, 8]: BLQ (BLQ: LLOQ (lower limit of quantitation: 2 pg/mL) or less)
Cmax ([2]; ICR mice, buprenorphine 30 μg/kg s.c.): 2.36 ng/mL
Plasma concentration 0.5 hr [2, 9]: 2560* pg/mL and 2770* pg/mL
Plasma concentration 1 hr [2, 9]: 1480* pg/mL and 1670* pg/mL
Plasma concentration 3 hr [2, 9]: 436* pg/mL and 494* pg/mL
Plasma concentration 12 hr [2, 9]: 0.0312 ng/mL and 0.0727 ng/mL and 0.0313 ng/mL
Plasma concentration 24 hr [2, 9]: 0.00768 ng/mL and 0.0042 ng/mL
Cmax ([2]; ICR, mouse, plasma, sc, 0.1 ug/kg): 0.00778 ng/mL
concentration at 0.5 h [2, 10]: 0.00778 ng/mL
concentration at 0.5 h [2, 11]: 0.00998 ng/mL
concentration at 1 h [2, 10]: 0.00485 ng/mL
concentration at 1 h [2, 11]: 0.00452 ng/mL
concentration at 3 h [2, 10]: 0.001 ng/mL
concentration at 3 h [2, 11]: 0.00299 ng/mL
concentration at 12 h [2, 10]: 0 ng/mL
concentration at 24 h [2, 10]: 0 ng/mL
Cmax ([2]; ICR, mouse, plasma, sc, 0.3 ug/kg): 0.0266 ng/mL
concentration at 0.5 h [2, 12]: 0.0266 ng/mL
concentration at 0.5 h [2, 13]: 0.0228 ng/mL
concentration at 1 h [2, 12]: 0.0148 ng/mL
concentration at 1 h [2, 13]: 0.0143 ng/mL
concentration at 3 h [2, 12]: 0.00477 ng/mL
concentration at 3 h [2, 13]: 0.00436 ng/mL
concentration at 12 h [2, 12]: 0 ng/mL
concentration at 24 h [2, 12]: 0 ng/mL
Cmax ([2]; ICR, mouse, plasma, sc, 1 ug/kg): 0.067 ng/mL
concentration at 0.5 h [2, 14]: 0.067 ng/mL
concentration at 1 h [2, 14]: 0.025 ng/mL
concentration at 3 h [2, 14]: 0.02 ng/mL
Cmax ([2]; ICR, mouse, plasma, sc, 3 ug/kg): 0.268 ng/mL
concentration at 0.5 h [2, 15]: 0.268 ng/mL
concentration at 0.5 h [2, 16]: 0.274 ng/mL
concentration at 1 h [2, 15]: 0.126 ng/mL
concentration at 1 h [2, 16]: 0.132 ng/mL
concentration at 3 h [2, 15]: 0.0641 ng/mL
concentration at 3 h [2, 16]: 0.0613 ng/mL
concentration at 12 h [2, 15]: 0.00312 ng/mL
concentration at 12 h [2, 16]: 0.00231 ng/mL
concentration at 24 h [2, 15]: 0 ng/mL
Cmax ([2]; ICR, mouse, plasma, sc, 10 ug/kg): 0.67 ng/mL
concentration at 0.5 h [2, 17]: 0.67 ng/mL
concentration at 0.5 h [2, 18]: 0.632 ng/mL
concentration at 1 h [2, 17]: 0.399 ng/mL
concentration at 1 h [2, 18]: 0.358 ng/mL
concentration at 3 h [2, 17]: 0.147 ng/mL
concentration at 3 h [2, 18]: 0.16 ng/mL
concentration at 12 h [2, 17]: 0.017 ng/mL
concentration at 24 h [2, 17]: 0.000777 ng/mL
concentration at 24 h [2, 18]: 0.00233 ng/mL
Cmax ([2]; ICR, mouse, plasma, sc, 30 ug/kg): 2.36 ng/mL
concentration at 0.5 h [2, 19]: 2.36 ng/mL
concentration at 0.5 h [2, 20]: 1.76 ng/mL
concentration at 1 h [2, 19]: 1.49 ng/mL
concentration at 1 h [2, 20]: 1.32 ng/mL
concentration at 3 h [2, 19]: 0.447 ng/mL
concentration at 3 h [2, 20]: 0.412 ng/mL
concentration at 12 h [2, 19]: 0.0451 ng/mL
concentration at 24 h [2, 19]: 0.00551 ng/mL
concentration at 24 h [2, 20]: 0.00464 ng/mL
improvement effect in social impairment 3 hours after administration (VPA model; 20 minutes from 3 hour after administration): observed
improvement effect in social impairment 12 hours after administration (VPA model; 20 minutes from 12 hours after administration): observed
improvement effect in social impairment at a high dose ([3]; high dose close to the analgesic dose): reduced the improvement effect in social impairment
improvement effect in social impairment ([3]; low dose of less than 1/10 of the dose of maximum analgesic effect, 20 minutes from 1 hour after administration): significant improvement effect in social impairment
number of activated nerve cells (c-Fos positive cells) ([4]; 0.003 mg/kg): no change
number of activated nerve cells (c-Fos positive cells) ([4]; 0.03 mg/kg): significantly increased
